We go through 1 compound from patent US9371265B2, “Compositions and methods related to inhibitors of JAK kinase” (EP PHARMA, INC., priority 2012, dated 2016).

One test deals with ERK1/2. The test is described as follows: Phospho-ERK1/2 in SU-DHL-1 cells (Luminex multiplex). The note with it: 24 hours, dose-dependent. The format is cell-based, human. The protocol: (§1) FIGS. 8A-8F. Effect of EP009 on ALCL cells is mediated through selective activation of ERK1/2 and JNK1/2 stress signaling pathways, and inhibition of p70 S6 kinase growth signaling pathways. SU-DHL-1 cells were treated with vehicle (PBS) or increasing amounts of EP009 (0-50 μM) for 24 hours. Cells were then lysed, clarified, and subjected to Luminex multiplex analysis to detect phosphorylated (A) ERK1/2, (B) JNK1/2, (C) p70 S6 kinase, (D) IκBα, (E) CREB, and (F) p38. Values represent mean fluorescence intensity (MFI) normalized to corresponding GAPDH MFI, while error bars represent the standard deviation (n=2). Representative data from two independent experiments are shown. Statistical significance was determined using Student's t-test. (*, p<0.05).
(§2) The MILLIPLEX MAP 8-plex Multi-Pathway Signaling Phosphoprotein kit (Millipore) was used to detect phosphorylated ERK1/2 (Thr185/Tyr187), STAT3 (Ser727), JNK1/2 (Thr183/Tyr185), p70 S6 kinase (Thr412), IκBα (Ser32), STAT5A/B (Tyr694/699), CREB (Ser133), and p38 (Thr180/Tyr182). The MILLIPLEX MAP 5-plex STAT Phosphoprotein kit (Millipore) was used to detect phosphorylated STAT1 (Tyr701), STAT2 (Tyr690), STAT3 (Tyr705), STAT5A/B (Tyr694/699), and STAT6 (Tyr641). The MILLIPLEX MAP Human Apoptosis 3-plex kit (Millipore) was used to detect cleaved PARP, cleaved Caspase 3, and total GAPDH for protein normalization.

The target in the next test is MEK1 (Homo sapiens, UniProt Q02750). The test is described as follows: Kinase panel: MEK1. The format is biochemical. The note with it: 10 μM EP009. On the procedure:
(§3) Achieving JAK3 selectivity remains a significant challenge in the development of new small molecules for the treatment of cancer and immune-derived diseases. As such, the inventors employed cell-based screening assays of small-molecule libraries based upon the chemical scaffold of the established JAK3 inhibitor NC1153 (Stepkowski et al., J Immunol. (2005), 175(7):4236-4246) EP009 (FIG. 2A) was selected as a lead compound due to improved intrinsic stability (>95% purity in various solvents at 37° C. for 24 hours; FIG. 3) and high-degree of JAK3 selectivity. To test JAK3 versus JAK2 specificity of EP009, the IL-2/JAK3-dependent Kit225, and IL-3/JAK2-dependent BaF/3 cell lines were used. Kit225 and BaF/3 cells growing in the presence of IL-2 or IL-3, respectively, were treated with ascending concentrations of EP009 for 12 hours and cellular JAK3 and JAK2 tyrosine phosphorylation levels detected by Western blot analysis (FIGS. 2B and 2C). Following densitometric analysis, EP009 was determined to dose-dependently reduce IL-2-mediated JAK3 tyrosine phosphorylation with a cellular 50% inhibitory concentration (IC50) between 10 and 20 μM (FIG. 2B). […] To globally evaluate specificity, the inhibitory activity of EP009 was measured against a panel of protein kinases distributed throughout the kinome using the scanEDGE profiling service (KINOMEscan). […]

A further test deals with PIK3C2B (Homo sapiens, UniProt O00750). The test is described as follows: Kinase panel: PIK3C2B. The format is biochemical. To be noted: 10 μM EP009. On the procedure: as §3
Chain of PIK3C2B (O00750 whole entry): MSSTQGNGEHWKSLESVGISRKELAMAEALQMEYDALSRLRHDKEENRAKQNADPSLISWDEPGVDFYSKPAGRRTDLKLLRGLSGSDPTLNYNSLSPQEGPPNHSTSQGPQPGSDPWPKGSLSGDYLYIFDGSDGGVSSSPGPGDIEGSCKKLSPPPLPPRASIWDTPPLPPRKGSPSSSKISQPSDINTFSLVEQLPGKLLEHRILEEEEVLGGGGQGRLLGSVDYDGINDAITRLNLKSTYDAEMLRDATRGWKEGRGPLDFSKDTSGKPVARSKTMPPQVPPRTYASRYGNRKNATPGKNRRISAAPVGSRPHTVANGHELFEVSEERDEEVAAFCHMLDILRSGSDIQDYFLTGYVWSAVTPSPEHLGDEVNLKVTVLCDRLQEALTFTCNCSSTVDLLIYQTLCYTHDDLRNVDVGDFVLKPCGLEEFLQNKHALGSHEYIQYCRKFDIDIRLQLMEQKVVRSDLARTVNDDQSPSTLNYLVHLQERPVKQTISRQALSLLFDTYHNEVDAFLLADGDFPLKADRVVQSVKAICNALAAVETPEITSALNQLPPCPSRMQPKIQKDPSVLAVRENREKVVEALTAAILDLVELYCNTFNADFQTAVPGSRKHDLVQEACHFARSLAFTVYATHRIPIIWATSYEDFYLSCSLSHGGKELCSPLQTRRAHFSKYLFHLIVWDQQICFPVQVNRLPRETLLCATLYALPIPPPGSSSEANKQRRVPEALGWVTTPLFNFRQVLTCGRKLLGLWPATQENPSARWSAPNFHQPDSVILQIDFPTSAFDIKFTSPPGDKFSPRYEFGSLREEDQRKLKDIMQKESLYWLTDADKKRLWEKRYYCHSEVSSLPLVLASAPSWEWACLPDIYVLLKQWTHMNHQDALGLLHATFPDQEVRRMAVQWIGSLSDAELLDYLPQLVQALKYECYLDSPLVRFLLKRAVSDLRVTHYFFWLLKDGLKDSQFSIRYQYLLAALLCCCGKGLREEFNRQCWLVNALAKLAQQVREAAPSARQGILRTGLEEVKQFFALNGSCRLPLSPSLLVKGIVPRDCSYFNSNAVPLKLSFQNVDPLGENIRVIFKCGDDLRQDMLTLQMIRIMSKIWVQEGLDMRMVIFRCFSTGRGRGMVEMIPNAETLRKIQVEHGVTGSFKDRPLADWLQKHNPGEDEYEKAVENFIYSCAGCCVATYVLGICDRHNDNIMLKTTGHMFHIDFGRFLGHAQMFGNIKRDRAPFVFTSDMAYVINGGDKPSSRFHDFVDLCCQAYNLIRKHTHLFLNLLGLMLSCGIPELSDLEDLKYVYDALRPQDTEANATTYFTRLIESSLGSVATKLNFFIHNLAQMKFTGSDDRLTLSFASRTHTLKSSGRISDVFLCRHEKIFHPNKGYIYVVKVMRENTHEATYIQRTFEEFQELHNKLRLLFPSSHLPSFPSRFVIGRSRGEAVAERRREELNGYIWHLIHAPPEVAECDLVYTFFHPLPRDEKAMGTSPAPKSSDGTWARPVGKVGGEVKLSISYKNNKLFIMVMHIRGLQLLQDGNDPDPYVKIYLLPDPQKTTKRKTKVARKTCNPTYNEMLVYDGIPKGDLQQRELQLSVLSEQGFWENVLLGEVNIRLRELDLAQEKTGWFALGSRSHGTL
Another test has as its target YANK3 (Homo sapiens, UniProt Q86UX6). The test is described as follows: Kinase panel: YANK3. The format is biochemical. The note with it: 10 μM EP009. On the procedure: as §3
In another test the target is ROCK2 (Homo sapiens, UniProt O75116). The test is described as follows: Kinase panel: ROCK2. The format is biochemical. To be noted: 10 μM EP009. On the procedure:
as §3

For test [1], the target named is ABL1(T315I)-phosphorylated (Homo sapiens, UniProt P00519, T315I). Description: Kinase panel: ABL1(T315I)-phosphorylated. To be noted: 10 μM EP009. The format is biochemical. The protocol: as §3
In a further test the target is INSR (Homo sapiens, UniProt P06213). The test is described as follows: Kinase panel: INSR. The format is biochemical. The note with it: 10 μM EP009. On the procedure:
as §3

The next test has as its target PDGFRB (Homo sapiens, UniProt P09619). The test is described as follows: Kinase panel: PDGFRB. The format is biochemical. The note with it: 10 μM EP009. The protocol:
as §3

Another test deals with IGF1R (Homo sapiens, UniProt P08069). Description: Kinase panel: IGF1R. The format is biochemical. To be noted: 10 μM EP009. The protocol:
as §3

In a further test the target is MKNK2 (Homo sapiens, UniProt Q9HBH9). Description: Kinase panel: MKNK2. The format is biochemical. To be noted: 10 μM EP009. On the procedure: as §3
Chain of MKNK2 (Q9HBH9 whole entry): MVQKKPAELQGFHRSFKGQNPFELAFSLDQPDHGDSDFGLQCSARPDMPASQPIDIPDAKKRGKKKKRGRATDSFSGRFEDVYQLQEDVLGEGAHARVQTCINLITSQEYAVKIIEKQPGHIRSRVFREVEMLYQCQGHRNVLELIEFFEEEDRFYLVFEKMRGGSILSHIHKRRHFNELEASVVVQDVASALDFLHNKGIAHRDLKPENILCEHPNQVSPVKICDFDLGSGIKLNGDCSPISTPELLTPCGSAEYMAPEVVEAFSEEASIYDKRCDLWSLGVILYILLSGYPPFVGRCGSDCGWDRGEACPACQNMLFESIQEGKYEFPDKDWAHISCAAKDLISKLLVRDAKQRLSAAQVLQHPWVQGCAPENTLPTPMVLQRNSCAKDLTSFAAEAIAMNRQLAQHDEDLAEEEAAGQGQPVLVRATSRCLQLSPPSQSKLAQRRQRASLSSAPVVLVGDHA
The test system of another test is JNK1/2. Description: Phospho-JNK1/2 in SU-DHL-1 cells (Luminex multiplex). The format is cell-based, human. The note with it: 24 hours, dose-dependent. On the procedure:
as §1, §2

Chain of MEK1 (Q02750 whole entry): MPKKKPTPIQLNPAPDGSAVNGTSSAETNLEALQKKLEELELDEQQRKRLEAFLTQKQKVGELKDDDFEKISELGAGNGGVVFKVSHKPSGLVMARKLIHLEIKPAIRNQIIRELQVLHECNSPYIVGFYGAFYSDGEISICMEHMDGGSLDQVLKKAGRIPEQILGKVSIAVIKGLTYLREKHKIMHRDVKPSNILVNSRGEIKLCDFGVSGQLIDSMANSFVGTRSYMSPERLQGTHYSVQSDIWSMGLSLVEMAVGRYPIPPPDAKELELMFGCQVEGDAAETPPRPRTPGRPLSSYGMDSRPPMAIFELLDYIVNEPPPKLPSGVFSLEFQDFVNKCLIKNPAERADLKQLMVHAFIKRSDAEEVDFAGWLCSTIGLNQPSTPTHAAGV
Chain of IGF1R (P08069 31-1367): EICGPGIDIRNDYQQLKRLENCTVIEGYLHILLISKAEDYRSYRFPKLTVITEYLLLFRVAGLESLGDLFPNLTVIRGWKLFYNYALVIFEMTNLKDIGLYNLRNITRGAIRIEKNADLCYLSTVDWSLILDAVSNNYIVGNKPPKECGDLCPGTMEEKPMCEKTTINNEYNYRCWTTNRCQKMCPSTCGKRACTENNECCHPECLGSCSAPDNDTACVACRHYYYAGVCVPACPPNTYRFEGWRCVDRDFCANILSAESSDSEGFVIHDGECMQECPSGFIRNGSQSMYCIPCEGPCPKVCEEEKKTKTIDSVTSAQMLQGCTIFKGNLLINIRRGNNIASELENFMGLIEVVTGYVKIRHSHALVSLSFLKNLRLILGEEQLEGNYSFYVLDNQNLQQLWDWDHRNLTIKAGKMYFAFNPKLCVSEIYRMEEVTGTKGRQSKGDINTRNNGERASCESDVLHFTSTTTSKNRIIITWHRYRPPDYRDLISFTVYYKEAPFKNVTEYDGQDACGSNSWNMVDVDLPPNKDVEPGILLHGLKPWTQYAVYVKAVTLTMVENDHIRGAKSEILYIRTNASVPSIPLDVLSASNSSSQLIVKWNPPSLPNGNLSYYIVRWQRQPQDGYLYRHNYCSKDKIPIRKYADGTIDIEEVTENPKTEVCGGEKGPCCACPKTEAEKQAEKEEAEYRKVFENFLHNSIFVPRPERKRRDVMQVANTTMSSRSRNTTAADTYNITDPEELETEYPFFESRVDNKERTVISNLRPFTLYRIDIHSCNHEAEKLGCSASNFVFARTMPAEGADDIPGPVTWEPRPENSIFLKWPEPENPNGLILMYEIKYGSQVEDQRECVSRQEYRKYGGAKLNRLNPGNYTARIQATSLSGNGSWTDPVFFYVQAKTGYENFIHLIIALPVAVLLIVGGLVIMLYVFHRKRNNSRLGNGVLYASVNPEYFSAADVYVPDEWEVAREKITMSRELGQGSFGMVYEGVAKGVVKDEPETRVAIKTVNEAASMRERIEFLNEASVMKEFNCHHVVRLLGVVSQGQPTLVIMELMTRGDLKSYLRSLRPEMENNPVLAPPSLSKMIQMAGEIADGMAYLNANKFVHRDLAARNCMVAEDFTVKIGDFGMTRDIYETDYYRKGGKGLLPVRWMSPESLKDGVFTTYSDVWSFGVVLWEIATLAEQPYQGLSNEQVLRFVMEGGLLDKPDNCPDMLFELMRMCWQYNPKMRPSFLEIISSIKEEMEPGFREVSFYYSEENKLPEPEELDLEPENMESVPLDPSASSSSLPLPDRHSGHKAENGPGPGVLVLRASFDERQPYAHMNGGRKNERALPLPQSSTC
Chain of PDGFRB (P09619 33-1106): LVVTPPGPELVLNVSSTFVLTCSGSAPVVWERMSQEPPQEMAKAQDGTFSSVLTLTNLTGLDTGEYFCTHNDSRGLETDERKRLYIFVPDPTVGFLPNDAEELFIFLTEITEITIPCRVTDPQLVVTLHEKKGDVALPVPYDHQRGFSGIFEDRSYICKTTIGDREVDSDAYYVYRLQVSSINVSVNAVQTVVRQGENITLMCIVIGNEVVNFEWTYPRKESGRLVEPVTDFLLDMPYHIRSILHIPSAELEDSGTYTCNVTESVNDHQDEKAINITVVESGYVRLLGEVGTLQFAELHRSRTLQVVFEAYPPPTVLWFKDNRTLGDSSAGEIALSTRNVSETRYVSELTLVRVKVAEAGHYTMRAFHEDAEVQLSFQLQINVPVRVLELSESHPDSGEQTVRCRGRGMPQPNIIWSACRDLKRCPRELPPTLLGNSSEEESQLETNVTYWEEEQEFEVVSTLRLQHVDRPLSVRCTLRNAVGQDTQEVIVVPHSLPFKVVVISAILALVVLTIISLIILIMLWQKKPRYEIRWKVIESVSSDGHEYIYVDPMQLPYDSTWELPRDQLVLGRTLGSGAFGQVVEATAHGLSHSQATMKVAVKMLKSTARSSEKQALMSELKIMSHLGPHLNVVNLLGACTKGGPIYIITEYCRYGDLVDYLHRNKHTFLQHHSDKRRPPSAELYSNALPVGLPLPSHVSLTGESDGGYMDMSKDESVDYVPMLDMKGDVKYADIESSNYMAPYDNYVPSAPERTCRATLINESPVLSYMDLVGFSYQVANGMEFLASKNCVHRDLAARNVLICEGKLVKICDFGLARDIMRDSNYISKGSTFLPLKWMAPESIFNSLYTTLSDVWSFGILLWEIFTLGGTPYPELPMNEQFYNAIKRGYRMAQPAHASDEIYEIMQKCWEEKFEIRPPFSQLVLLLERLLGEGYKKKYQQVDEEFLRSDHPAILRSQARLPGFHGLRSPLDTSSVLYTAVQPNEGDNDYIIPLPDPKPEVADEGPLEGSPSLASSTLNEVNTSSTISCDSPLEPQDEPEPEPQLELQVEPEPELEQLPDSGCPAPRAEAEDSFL

On to `C=C1CCCCCCCCCC(CO)C1=O` (centres unmarked) [EP009, 2-(Hydroxymethyl)-12-methylenecyclododecanone], for which the ERK1/2 phosphorylation entry in the test with ERK1/2 was “induced phosphorylation and activation”. Besides, the “Kinase Activity (% of Control)” value on MEK1 was 71 % of Control; at PIK3C2B, 70 % of Control; on YANK3 it was 98 % of Control; at ROCK2, 99 % of Control; in [1], 100 % of Control; on INSR, 100 % of Control. The “Kinase Activity (% of Control)” value at PDGFRB, on IGF1R and on MKNK2 was 100 % of Control throughout. The JNK1/2 phosphorylation entry with JNK1/2 was “induced phosphorylation and activation”.
